Earlier results as cited in article PMC12150326 (The Journal of Organic Chemistry, 2025).
Values joined by “and” are separate entries in the source; they are usually repeats but may differ in a detail not shown here. Equal entries are not always repeated. Where two headings read alike, the source gives them in different places.

Legend:
Design in all cases: method as in NCI-60 database
SK-MEL-28 = SK-MEL-28 ref NCI-60 database, cited from earlier work
PC-3 = PC-3 ref NCI-60 database, cited from earlier work
SR = SR ref NCI-60 database, cited from earlier work
SF-268 = SF-268 ref NCI-60 database, cited from earlier work
UACC-257 = UACC-257 ref NCI-60 database; cited from earlier work
HCC-2998 = HCC-2998 ref NCI-60 database, cited from earlier work
M14 = M14 ref NCI-60 database, cited from earlier work
NCI-H460 = NCI-H460 ref NCI-60 database, cited from earlier work
MOLT-4 = MOLT-4 ref NCI-60 database, cited from earlier work
UACC-62 = UACC-62 ref NCI-60 database, cited from earlier work
LXFL 529 = LXFL 529 ref NCI-60 database, cited from earlier work
K-562 = K-562 ref NCI-60 database, cited from earlier work
DMS 273 = DMS 273 ref NCI-60 database, cited from earlier work
MCF7 = MCF7 ref NCI-60 database, cited from earlier work
SNB-19 = SNB-19 ref NCI-60 database, cited from earlier work
LOX IMVI = LOX IMVI ref NCI-60 database, cited from earlier work
SN12C = SN12C ref NCI-60 database, cited from earlier work
NCI-H522 = NCI-H522 ref NCI-60 database, cited from earlier work
RPMI-8226 = RPMI-8226 ref NCI-60 database, cited from earlier work

For `COc1cc2c(c(OC)c1OC)-c1ccc(OC)c(=O)cc1[C@@H](NC(C)=O)CC2` [Colchicine, (−)-Colchicine], the Log10GI50 (SK-MEL-28; listed as 757/1) is given as -7.02 Molar, the Log10LC50 (SK-MEL-28; listed as 757/9) is given as -4.44 Molar and the Log10TGI (SK-MEL-28; listed as 757/9) is given as -4.95 Molar. The Log10LC50 (SK-MEL-28; listed as 757/21) was greater than -4.00 Molar, the Log10TGI (SK-MEL-28; listed as 757/21) was greater than -4.00 Molar and the GI50 (PC-3) was 24 nM. For the same compound, the Log10GI50 (PC-3) was -7.62 Molar, the Log10LC50 (PC-3) was greater than -4.00 Molar and the Log10GI50 (PC-3; listed as 757/9) was -7.65 Molar. For the same compound, the Log10TGI (PC-3; listed as 757/9) was -6.37 Molar, the Log10GI50 (PC-3; listed as 757/21) was -7.62 Molar and the Log10TGI (PC-3; listed as 757/21) was greater than -4.00 Molar. The GI50 (SR) was 30 nM, the Log10GI50 (SR) was -7.49 Molar and the Log10LC50 (SR) was greater than -4.00 Molar. For the same compound, the Log10GI50 (SR; listed as 757/9) was less than -8.00 Molar, the Log10TGI (SR; listed as 757/9) was -7.47 Molar and the Log10TGI (SR; listed as 757/21) was greater than -4.00 Molar. For the same compound, the GI50 (SF-268) was 4680 nM, the Log10GI50 (SF-268) was -5.33 Molar and the Log10LC50 (SF-268) was greater than -4.00 Molar. The Log10GI50 (SF-268; listed as 757/9) was -7.12 Molar, the Log10TGI (SF-268; listed as 757/9) was -6.03 Molar and the Log10TGI (SF-268; listed as 757/21) was greater than -4.00 Molar. For the same compound, the GI50 (UACC-257) was greater than 100000 nM, the Log10GI50 (UACC-257) was greater than -4 Molar and the Log10LC50 (UACC-257) was greater than -4.00 Molar. For the same compound, the Log10TGI (UACC-257) was greater than -4.00 Molar, the GI50 (HCC-2998) was 30 nM and the Log10GI50 (HCC-2998) was -7.51 Molar. The Log10LC50 (HCC-2998) was greater than -4.00 Molar, the Log10GI50 (HCC-2998; listed as 757/1) was -7.48 Molar and the Log10GI50 (HCC-2998; listed as 757/9) was -7.78 Molar. The Log10TGI (HCC-2998; listed as 757/9) was -7.59 Molar and -7.33 Molar, the GI50 (M14) was 55 nM and the Log10GI50 (M14) was -7.26 Molar. The Log10LC50 (M14) was greater than -4.00 Molar, the Log10GI50 (M14; listed as 757/9) was -7.68 Molar and the Log10TGI (M14; listed as 757/9) was -6.43 Molar. For the same compound, the GI50 (NCI-H460) was 20 nM, the Log10GI50 (NCI-H460) was -7.65 Molar and the Log10LC50 (NCI-H460) was greater than -4.00 Molar. For the same compound, the Log10TGI (NCI-H460; listed as 757/9) was -7.12 Molar, the Log10GI50 (NCI-H460; listed as 757/21) was -7.62 Molar and -7.50 Molar and -7.65 Molar and the GI50 (MOLT-4) was 40 nM. The Log10GI50 (MOLT-4) was -7.45 Molar, the Log10GI50 (MOLT-4; listed as 757/9) was -7.60 Molar and the Log10LC50 (MOLT-4; listed as 757/9) was -4.90 Molar. The Log10TGI (MOLT-4; listed as 757/9) was less than -8.00 Molar, the Log10LC50 (MOLT-4; listed as 757/21) was greater than -4.00 Molar and the Log10TGI (MOLT-4; listed as 757/21) was greater than -4.00 Molar. The GI50 (UACC-62) was 21 nM, the Log10GI50 (UACC-62) was -7.67 Molar and the Log10GI50 (UACC-62; listed as 757/1) was -7.19 Molar. The Log10GI50 (UACC-62; listed as 757/9) was -6.40 Molar, the Log10LC50 (UACC-62; listed as 757/9) was -6.18 Molar and the Log10TGI (UACC-62; listed as 757/9) was -7.72 Molar. For the same compound, the Log10LC50 (UACC-62; listed as 757/21) was > -4.00 Molar and -4.22 Molar, the Log10LC50 (LXFL 529) was greater than -4.00 Molar and the Log10TGI (LXFL 529) was greater than -4.00 Molar. For the same compound, the Log10GI50 (LXFL 529; listed as 757/21) was < -8.00 Molar and -7.80 Molar, the GI50 (K-562) was 20 nM and the Log10GI50 (K-562) was -7.79 Molar. For the same compound, the Log10LC50 (K-562) was greater than -4.00 Molar, the Log10TGI (K-562) was greater than -4.00 Molar and the Log10GI50 (K-562; listed as 757/1) was -7.47 Molar. The Log10GI50 (K-562; listed as 757/21) was < -8.00 Molar and -7.84 Molar and -7.79 Molar, the Log10LC50 (DMS 273) was greater than -4.00 Molar and the Log10TGI (DMS 273) was greater than -4.00 Molar. For the same compound, the Log10GI50 (DMS 273; listed as 757/1) was -7.51 Molar, the Log10GI50 (DMS 273; listed as 757/21) was < -8.00 Molar and -7.87 Molar and the GI50 (MCF7) was 11 nM. The Log10GI50 (MCF7) was -7.94 Molar, the Log10LC50 (MCF7) was greater than -4.00 Molar and the Log10GI50 (MCF7; listed as 757/9) was less than -8.00 Molar. For the same compound, the Log10TGI (MCF7; listed as 757/9) was -7.92 Molar, the Log10GI50 (MCF7; listed as 757/21) was -7.89 Molar and the Log10TGI (MCF7; listed as 757/21) was greater than -4.00 Molar. For the same compound, the GI50 (SNB-19) was 40 nM, the Log10GI50 (SNB-19) was -7.43 Molar and the Log10LC50 (SNB-19) was greater than -4.00 Molar. The Log10GI50 (SNB-19; listed as 757/1) was less than -8.00 Molar, the Log10GI50 (SNB-19; listed as 757/9) was -7.55 Molar and the Log10GI50 (SNB-19; listed as 757/21) was -7.22 Molar and -7.43 Molar. For the same compound, the GI50 (LOX IMVI) was 19 nM, the Log10GI50 (LOX IMVI) was -7.71 Molar and the Log10GI50 (LOX IMVI; listed as 757/1) was -7.11 Molar. For the same compound, the GI50 (SN12C) was 54 nM, the Log10GI50 (SN12C) was -7.27 Molar and the Log10LC50 (SN12C) was greater than -4.00 Molar. For the same compound, the Log10GI50 (SN12C; listed as 757/9) was less than -8.00 Molar, the Log10GI50 (SN12C; listed as 757/21) was -7.33 Molar and -7.28 Molar and -7.27 Molar and the Log10TGI (SN12C; listed as 757/21) was > -4.00 Molar and -4.21 Molar. The GI50 (NCI-H522) was 10 nM, the Log10GI50 (NCI-H522) was -7.84 Molar and the Log10LC50 (NCI-H522) was greater than -4.00 Molar. The Log10GI50 (NCI-H522; listed as 757/1) was -7.64 Molar, the Log10TGI (NCI-H522; listed as 757/1) was -7.26 Molar and the Log10TGI (NCI-H522; listed as 757/9) was -7.46 Molar. For the same compound, the Log10GI50 (NCI-H522; listed as 757/21) was < -8.00 Molar and -7.98 Molar and -7.84 Molar, the GI50 (RPMI-8226) was less than 10 nM and the Log10GI50 (RPMI-8226) was less than -8 Molar. For the same compound, the Log10LC50 (RPMI-8226) was greater than -4.00 Molar, the Log10TGI (RPMI-8226) was greater than -4.00 Molar and the Log10GI50 (RPMI-8226; listed as 757/1) was less than -8.00 Molar.
